Measurements as given in US7560473B2 (Institute of Pharmacology and Toxicology Academy of …, priority 2001, dated 2009).

Key:
[1] = system: spontaneously hypertensive rats; experiment: Acute antihypertensive effects in conscious spontaneously hypertensive rats; assay type: in vivo; details: po mg/kg: compound 1 3, pinacidil 3, nifedipine 10, bisoprolol 60, captopril 40, means ± SD, 9-13 rats; for heart rates at 1 h / heart rates at 3 h / heart rates at 5 h / heart rates at 9 h / heart rates at 12 h / heart rates at 24 h / heart rates base value: in bpm (unit assumed); for SBP base value / heart rates base value: base value before administration
From the text: Biological activity experiment 2. The acute antihypertensive effects of compound 1 in conscious spontaneously hypertensive rats.
The methods of biological activity experiment 2 were described by Long Chao-Liang et al: Long Chao-Liang, Wang Hai, Xiao Wen-Bin. Effects of pinacidil on, hypertensive vascular remodeling. Chin J Pharmacol Toxicol 1997; 11(1):42-46.

[2] = system: rats anesthetized with pentobarbital sodium; experiment: Effects on blood pressure, heart rate, cardiac contraction and dilation in rats anesthetized with pentobarbital sodium; assay type: in vivo, Wistar rats; design: unit not given here; details: change after injection through femoral vein, '+' = increase, all others = decrease; for MBP: mean blood pressure: n = 3~5, doses mg/kg: 2, 8, 12: 10, 3-7, 9-11, 40-44: 5; for DBP: diastolic blood pressure / HR: heart rate / LVSP: left ventricular systolic pressure / SBP: systolic blood pressure / Vpm: the physiological velocity of contractile element shorting / −dp/dtmax: the maximal rate of the decrease of left ventricular pressure: mean, n = 3~5, doses mg/kg: 2, 8, 12: 10, 3-7, 9-11, 40-44: 5
Experimental: Biological activity experiment 1. The effects of 16 compounds represented by formula I on blood pressure, heart rate, cardiac contraction and dilation in rats anesthetized with pentobarbital sodium.
The methods of biological activity experiment 1 were as follows: Male Wistar rats, weighing 280±30 g were purchased from the experimental animal center of Academy of Military Medical Sciences. Rats were anesthetized with pentobarbital sodium (45 mg/kg) by peritoneal injection. A PE50 polyethylene catheter was inserted into the left ventricle through right carotid artery for cardiac function measurement with a pressure energe exchanger, wherein the signal is put into a SMUP-PC biosignal processing system. Cardiac functional parameters such as HR, LVSP, +dp/dtmax, −dp/dtmax and Vpm were recorded. Another two PE50 polyethylene catheters were inserted into the right femoral artery and vein respectively for blood pressure measurement wherein the artery cathether was linked to a four-channel physiology recorder (RM-6000) through a MPU-0.5A Type pressure energe exchanger, which recorded SBP, DBP and MBP, while the vein catheter was used for compound administration. The methods were described by Liu Wei et al: Liu Wei, Wang Hai, Xiao Wen-Bin. […] Bull Acad Mil Med Sci 1996;20(4):245˜248.

[3] = system: rats anesthetized with pentobarbital sodium; experiment: Antagonism of glibenclamide on the cardiovascular effects in anesthetized rats; assay type: in vivo, Wistar rats; details: iv mg/kg: pinacidil 1.0, nifedipine 1.0, compound 1 0.5, means ± SE
Experimental: The methods of biological activity experiment 1 were as follows: Male Wistar rats, weighing 280±30 g were purchased from the experimental animal center of Academy of Military Medical Sciences. Rats were anesthetized with pentobarbital sodium (45 mg/kg) by peritoneal injection. A PE50 polyethylene catheter was inserted into the left ventricle through right carotid artery for cardiac function measurement with a pressure energe exchanger, wherein the signal is put into a SMUP-PC biosignal processing system. Cardiac functional parameters such as HR, LVSP, +dp/dtmax, −dp/dtmax and Vpm were recorded. Another two PE50 polyethylene catheters were inserted into the right femoral artery and vein respectively for blood pressure measurement wherein the artery cathether was linked to a four-channel physiology recorder (RM-6000) through a MPU-0.5A Type pressure energe exchanger, which recorded SBP, DBP and MBP, while the vein catheter was used for compound administration. The methods were described by Liu Wei et al: Liu Wei, Wang Hai, Xiao Wen-Bin.
The methods of Biological activity experiment 3 were the same as those described in the biological activity experiment 1.

[4] = A: after administration (30 min after pinacidil, 10 min nifedipine, 15 min compound 1), glibenclamide 20 iv pretreatment
[5] = B: before administration, glibenclamide 20 iv pretreatment ten minutes

CC(C)NCC(O)COc1ccc(COCCOC(C)C)cc1 (centres unmarked) [bisoprolol]
SBP at 1 h after administration [1]: 211 ± 7 mmHg | heart rates at 1 h [1]: 283 ± 17 | SBP at 3 h after administration [1]: 240 ± 7 mmHg | heart rates at 3 h [1]: 278 ± 16 | SBP at 5 h after administration [1]: 242 ± 4 mmHg | heart rates at 5 h [1]: 335 ± 34 | SBP at 9 h after administration [1]: 242 ± 3 mmHg | heart rates at 9 h [1]: 320 ± 36 | SBP at 12 h after administration [1]: 243 ± 3 mmHg | heart rates at 12 h [1]: 341 ± 28 | SBP at 24 h after administration [1]: 242 ± 6 mmHg | heart rates at 24 h [1]: 360 ± 7 | SBP base value [1]: 242 ± 5 mmHg | heart rates base value [1]: 355 ± 17

C[C@H](CS)C(=O)N1CCC[C@H]1C(=O)O [captopril]
SBP at 1 h after administration [1]: 207 ± 9 mmHg | heart rates at 1 h [1]: 380 ± 12 | SBP at 3 h after administration [1]: 213 ± 11 mmHg | heart rates at 3 h [1]: 370 ± 24 | SBP at 5 h after administration [1]: 233 ± 10 mmHg | heart rates at 5 h [1]: 366 ± 22 | SBP at 9 h after administration [1]: 242 ± 4 mmHg | heart rates at 9 h [1]: 355 ± 12 | SBP at 12 h after administration [1]: 241 ± 5 mmHg | heart rates at 12 h [1]: 355 ± 29 | SBP at 24 h after administration [1]: 243 ± 4 mmHg | heart rates at 24 h [1]: 364 ± 12 | SBP base value [1]: 243 ± 4 mmHg | heart rates base value [1]: 350 ± 17

CC(C)NC(C)C(C)C (centres unmarked) [compound 7]
MBP: mean blood pressure [2]: 34 | DBP: diastolic blood pressure [2]: 34 | HR: heart rate [2]: 46 | LVSP: left ventricular systolic pressure [2]: 184 | SBP: systolic blood pressure [2]: 34 | Vpm: the physiological velocity of contractile element shorting [2]: 1.08 | −dp/dtmax: the maximal rate of the decrease of left ventricular pressure [2]: 226

CNC(C)C [compound 8]
MBP: mean blood pressure [2]: 26 | DBP: diastolic blood pressure [2]: 24 | HR: heart rate [2]: 53 | LVSP: left ventricular systolic pressure [2]: 121 | SBP: systolic blood pressure [2]: 28 | Vpm: the physiological velocity of contractile element shorting [2]: 1.45 | −dp/dtmax: the maximal rate of the decrease of left ventricular pressure [2]: 124

CCC(C)N (centres unmarked) [compound 10]
MBP: mean blood pressure [2]: 4 | DBP: diastolic blood pressure [2]: 5 | HR: heart rate [2]: 20 | LVSP: left ventricular systolic pressure [2]: 21 | SBP: systolic blood pressure [2]: 2 | Vpm: the physiological velocity of contractile element shorting [2]: 0.25 | −dp/dtmax: the maximal rate of the decrease of left ventricular pressure [2]: 27

CCC(C)(C)NC [compound 11]
MBP: mean blood pressure [2]: 13 | DBP: diastolic blood pressure [2]: 10 | HR: heart rate [2]: 19 | LVSP: left ventricular systolic pressure [2]: +159 | SBP: systolic blood pressure [2]: 18 | Vpm: the physiological velocity of contractile element shorting [2]: 0.1 | −dp/dtmax: the maximal rate of the decrease of left ventricular pressure [2]: +86

CCC(C)N (centres unmarked) [compound 12]
MBP: mean blood pressure [2]: 24 | DBP: diastolic blood pressure [2]: 23 | HR: heart rate [2]: 39 | LVSP: left ventricular systolic pressure [2]: 112 | SBP: systolic blood pressure [2]: 25 | Vpm: the physiological velocity of contractile element shorting [2]: 0.58 | −dp/dtmax: the maximal rate of the decrease of left ventricular pressure [2]: 129

CC(C)C(C)(C)NC(=O)[C@@H](N)Cc1c[nH]c2ccccc12 [compound 40, N-tryptophanyl-2,3-dimethyl-2-butylamine]
MBP: mean blood pressure [2]: +0.7 | DBP: diastolic blood pressure [2]: 0 | HR: heart rate [2]: 6 | LVSP: left ventricular systolic pressure [2]: +23 | SBP: systolic blood pressure [2]: +2 | Vpm: the physiological velocity of contractile element shorting [2]: +0.1 | −dp/dtmax: the maximal rate of the decrease of left ventricular pressure [2]: +6

CC[C@H](C)[C@H](N)C(=O)NC(C)(C)C(C)C [compound 41, N-isoleucyl-2,3-dimethyl-2-butylamine]
MBP: mean blood pressure [2]: +1 | DBP: diastolic blood pressure [2]: +1 | HR: heart rate [2]: 16 | LVSP: left ventricular systolic pressure [2]: +4 | SBP: systolic blood pressure [2]: +2 | Vpm: the physiological velocity of contractile element shorting [2]: 0 | −dp/dtmax: the maximal rate of the decrease of left ventricular pressure [2]: +2

CC(C)C[C@H](N)C(=O)NC(C)(C)C(C)C [compound 42, N-leucyl-2,3-dimethyl-2-butylamine]
MBP: mean blood pressure [2]: +2 | DBP: diastolic blood pressure [2]: +2 | HR: heart rate [2]: +1 | LVSP: left ventricular systolic pressure [2]: +10 | SBP: systolic blood pressure [2]: +2 | Vpm: the physiological velocity of contractile element shorting [2]: +0.18 | −dp/dtmax: the maximal rate of the decrease of left ventricular pressure [2]: +13

CC(C)C(C)(C)NC(=O)[C@@H](N)Cc1ccccc1 [compound 43, N-phenylalanyl-2,3-dimethyl-2-butylamine]
MBP: mean blood pressure [2]: +2 | DBP: diastolic blood pressure [2]: +1 | HR: heart rate [2]: +10 | LVSP: left ventricular systolic pressure [2]: +31 | SBP: systolic blood pressure [2]: +3 | Vpm: the physiological velocity of contractile element shorting [2]: +0.13 | −dp/dtmax: the maximal rate of the decrease of left ventricular pressure [2]: +10

COC(=O)C1=C(C)NC(C)=C(C(=O)OC)C1c1ccccc1[N+](=O)[O-] [nifedipine]
SBP at 1 h after administration [1]: 186 ± 6 mmHg | heart rates at 1 h [1]: 410 ± 11 | SBP at 3 h after administration [1]: 219 ± 12 mmHg | heart rates at 3 h [1]: 410 ± 31 | SBP at 5 h after administration [1]: 235 ± 5 mmHg | heart rates at 5 h [1]: 367 ± 24 | SBP at 9 h after administration [1]: 240 ± 6 mmHg | heart rates at 9 h [1]: 365 ± 13 | SBP at 12 h after administration [1]: 242 ± 4 mmHg | heart rates at 12 h [1]: 365 ± 16 | SBP at 24 h after administration [1]: 242 ± 4 mmHg | heart rates at 24 h [1]: 364 ± 22 | SBP base value [1]: 242 ± 5 mmHg | heart rates base value [1]: 352 ± 19 | DBP [3, 4]: 62 ± 7 mmHg | LVSP [3, 4]: 113 ± 7 mmHg | MBP [3, 4]: 76 ± 8 mmHg | Vpm [3, 4]: 4.2 ± 0.5 /a | DBP [3, 5]: 95 ± 8 mmHg | LVSP [3, 5]: 131 ± 6 mmHg | MBP [3, 5]: 111 ± 7 mmHg | Vpm [3, 5]: 5.7 ± 0.1 /a
